Reference: article PMC6868041, “Evans Blue Inhibits HBV Replication Through a Dual Antiviral Mechanism by Targeting Virus Binding and Capsid Assembly” (Frontiers in Microbiology, 2019)

Legend:
[1] = target: T1, BSA (Bos taurus, UniProt P02769); assay: biolayer interferometry (Octet RED); assay type: binding; conditions: negative control protein, biotinylated BSA on sensor; paper states no interaction; unreliable
T1 construct: gene ALB; commercial serum albumin, biotinylated, control protein

[2] = target: T2, NTCP (recombinant His-tagged human NTCP; hNTCP) (Homo sapiens, UniProt Q14973); assay: inhibition of FITC-preS1-myr binding to Huh7D-hNTCP cells, high-content imaging; assay type: cell-based; set-up: gene SLC10A1
T2 sequence (Q14973 1-349): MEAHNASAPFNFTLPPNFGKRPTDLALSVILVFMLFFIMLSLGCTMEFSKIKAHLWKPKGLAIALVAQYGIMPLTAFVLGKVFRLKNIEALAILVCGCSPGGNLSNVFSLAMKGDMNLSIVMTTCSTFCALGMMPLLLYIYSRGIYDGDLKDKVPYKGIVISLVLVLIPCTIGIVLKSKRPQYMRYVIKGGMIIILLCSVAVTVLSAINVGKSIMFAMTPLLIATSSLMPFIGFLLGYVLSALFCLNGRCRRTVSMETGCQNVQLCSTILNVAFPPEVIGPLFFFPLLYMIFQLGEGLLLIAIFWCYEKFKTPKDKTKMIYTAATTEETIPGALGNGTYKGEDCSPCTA
Excerpt: inhibition of FITC-preS1-myr binding to Huh7D-hNTCP cells, high-content imaging on NTCP (recombinant His-tagged human NTCP; hNTCP) | inhibited the binding of FITC-preS1 to cells in a concentration-dependent manner with an IC50

[3] = target: T2, NTCP (recombinant His-tagged human NTCP; hNTCP); assay: biolayer interferometry (Octet RED); assay type: binding; set-up: gene SLC10A1; full-length from pEnter-hNTCP, His-tag, expressed in and purified from HEK293T, biotinylated for Octet

T1 sequence (P02769 25-607): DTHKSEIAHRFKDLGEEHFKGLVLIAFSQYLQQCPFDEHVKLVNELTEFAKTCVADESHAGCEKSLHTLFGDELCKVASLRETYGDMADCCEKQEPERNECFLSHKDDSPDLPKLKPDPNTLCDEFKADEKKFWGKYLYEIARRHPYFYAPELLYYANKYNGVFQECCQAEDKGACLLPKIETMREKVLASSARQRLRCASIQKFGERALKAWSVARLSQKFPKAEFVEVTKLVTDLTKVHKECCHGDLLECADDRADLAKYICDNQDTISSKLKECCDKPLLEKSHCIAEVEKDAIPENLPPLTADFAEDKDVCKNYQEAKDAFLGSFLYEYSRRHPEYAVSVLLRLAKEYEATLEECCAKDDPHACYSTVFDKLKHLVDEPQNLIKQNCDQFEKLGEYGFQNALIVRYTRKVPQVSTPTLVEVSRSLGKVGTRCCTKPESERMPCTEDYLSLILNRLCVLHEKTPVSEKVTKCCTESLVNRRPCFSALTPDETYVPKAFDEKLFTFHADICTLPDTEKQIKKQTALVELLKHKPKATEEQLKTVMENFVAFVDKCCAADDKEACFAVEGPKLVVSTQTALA

SMILES: Cc1cc(-c2ccc(/N=N/c3ccc4c(S(=O)(=O)O)cc(S(=O)(=O)O)c(N)c4c3O)c(C)c2)ccc1/N=N/c1ccc2c(S(=O)(=O)O)cc(S(=O)(=O)O)c(N)c2c1O [Evans blue]
- KD [1]: 468 µM
- IC50 [2]: ~5 µM
- Kd [3]: 0.0882 µM
